According to patent US8093265B2, “Bicycloheteroaryl compounds as P2X7 modulators and uses thereof” (Renovis, Inc., priority 2007, dated 2012):

Target: T1, P2X7 receptor (Homo sapiens, UniProt Q99572)
T1 construct: host or cells: THP-1 cells differentiated with LPS and IFN-γ
T1 sequence (Q99572 1-595): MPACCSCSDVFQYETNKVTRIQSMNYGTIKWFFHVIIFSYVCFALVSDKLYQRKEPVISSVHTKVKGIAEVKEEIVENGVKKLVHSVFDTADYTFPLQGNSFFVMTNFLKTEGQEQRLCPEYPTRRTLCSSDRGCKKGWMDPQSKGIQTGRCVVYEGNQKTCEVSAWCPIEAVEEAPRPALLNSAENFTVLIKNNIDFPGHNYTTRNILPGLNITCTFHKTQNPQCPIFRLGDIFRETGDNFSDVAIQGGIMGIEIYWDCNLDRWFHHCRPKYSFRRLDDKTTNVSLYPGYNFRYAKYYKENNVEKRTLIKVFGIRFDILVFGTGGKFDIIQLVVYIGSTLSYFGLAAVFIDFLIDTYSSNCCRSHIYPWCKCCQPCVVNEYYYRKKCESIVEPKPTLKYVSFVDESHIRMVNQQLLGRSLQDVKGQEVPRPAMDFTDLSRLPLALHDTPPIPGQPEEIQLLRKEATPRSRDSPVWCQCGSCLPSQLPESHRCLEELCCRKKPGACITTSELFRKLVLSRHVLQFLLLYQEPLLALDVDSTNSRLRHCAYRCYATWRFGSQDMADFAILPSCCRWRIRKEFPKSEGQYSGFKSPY
Test: IL-1β release assay in differentiated THP-1 cells (Example 9)
Format: cell-based
Details: THP-1 cells differentiated with LPS and IFN-γ; 30 min pretreatment; BzATP 250 uM; IL-1β by ELISA
Method: THP-1 cells (ATCC Cat #285-IF-100) are plated in 96 well plates at a concentration of 200,000 cells per well and allowed to differentiate in RPMI-1640 media (ATCC Cat #30-2001) containing 10% FBS, 100 IU/mL penicillin, 100 ug/mL streptomycin, 100 ng/mL LPS and 100 ng/mL IFN-γ for 16 hours. Following differentiation, the cells are treated for an additional 2 hours in RPMI-1640 media containing 100 IU/mL penicillin, 100 ug/mL streptomycin and fresh LPS at 100 ng/mL. The cells are then pretreated for 30 minutes with the compound of interest at the appropriate concentration in RPMI media containing 100 IU/mL penicillin, 100 ug/mL streptomycin. Following the pretreatment 2′,3′-O-(4-benzoylbenzoyl)-adenosine 5′-triphosphate (Sigma Aldrich Cat # B6396) is added to a final concentration of 250 uM, and the cells are incubated for an additional 45 minutes. 30 uL of cell supernatant is then collected and IL-1β levels are determined via ELISA (R&D systems Cat. # HSLB50) according to manufacturer's recommendations using a Tecan Safire plate reader. Background adjusted IL-1β levels of drug treated and non-treated cells are used to calculate the percent inhibition.
The following compounds have been or can be prepared according to the synthetic methods described herein for example, methods A-AA1. The compounds set forth in Table 1 were tested for activity in a cellular model as described herein. Specifically, cells were pretreated with differing amounts of the compound under test and released IL-1β determined as in Example 9, above. Measurements were made and IC50 values, presented in Table 1, below, were determined by fitting the data to a four parameter logistic equation using GraphPad Prism software (GraphPad Software, Inc). The equation may be expressed by the following formula: Y=Bottom+(Top−Bottom)/(1+10^((Log EC50−X)*HillSlope)) where X is the logarithm of concentration, Y is the response and Y starts at Bottom and goes to Top with a sigmoid shape.

Structure (SMILES)	IC50 [nM]
Cc1ccc2c(=O)n(C(CO)CO)ccc2c1NC(=O)Cc1ccc(C(F)(F)F)c(F)c1 [Compound 62, 2-(3-Fluoro-4-trifluoromethyl-phenyl)-N-[2-(2-hydroxy-1-hydroxymethyl-ethyl)-6-methyl-1-oxo-1,2-dihydro-isoquinolin-5-yl]-acetamide]	30
C[C@H](C(=O)Nc1c(Cl)ccc2c(=O)n([C@H](C)C(N)=O)ccc12)c1ccc(Cl)cc1 [Compound 4, (R)-2-{6-Chloro-5-[(S)-2-(4-chloro-phenyl)-propionylamino]-1-oxo-1H-isoquinolin-2-yl}-propionamide]	18
Cc1ccc2c(=O)n([C@H](C)CO)ccc2c1C(=O)NCC1(O)CCCCCC1 [Compound 52, 2-((R)-2-Hydroxy-1-methyl-ethyl)-6-methyl-1-oxo-1,2-dihydro-isoquinoline-5-carboxylic acid (1-hydroxy-cycloheptylmethyl)-amide]	4
C[C@H](CO)n1ccc2c(C(=O)NCC3CCCCCC3)c(Cl)ccc2c1=O [Compound 48, 6-Chloro-2-((R)-2-hydroxy-1-methyl-ethyl)-1-oxo-1,2-dihydro-isoquinoline-5-carboxylic acid cycloheptylmethyl-amide]	0.2
C[C@@H](C(N)=O)n1ccc2c(NC(=O)Cc3ccc(C(F)(F)F)cc3)c(Cl)ccc2c1=O [Compound 8, (S)-2-{6-Chloro-1-oxo-5-[2-(4-trifluoromethyl-phenyl)-acetylamino]-1H-isoquinolin-2-yl}-propionamide]	113
CNC[C@@H](C)n1ccc2c(NC(=O)Cc3ccc(C(F)(F)F)c(F)c3)c(C)ccc2c1=O [Compound 59, 2-(3-Fluoro-4-trifluoromethyl-phenyl)-N-[6-methyl-2-((R)-1-methyl-2-methylamino-ethyl)-1-oxo-1,2-dihydro-isoquinolin-5-yl]-acetamide]	2
C[C@@H](CO)n1ccc2c(NC(=O)Cc3ccc(C(F)(F)F)c(F)c3)c(Cl)ccc2c1=O [Compound 34, N-[6-Chloro-2-((S)-2-hydroxy-1-methyl-ethyl)-1-oxo-1,2-dihydro-isoquinolin-5-yl]-2-(3-fluoro-4-trifluoromethyl-phenyl)-acetamide]	23
C[C@H](CO)n1ccc2c(NC(=O)Cc3ccc(C(F)(F)F)cc3F)c(Cl)ccc2c1=O [Compound 14, N-[6-Chloro-2-((R)-2-hydroxy-1-methyl-ethyl)-1-oxo-1,2-dihydro-isoquinolin-5-yl]-2-(2-fluoro-4-trifluoromethyl-phenyl)-acetamide]	31
Cc1ccc2c(=O)n([C@H](C)CN3CC[C@H](N)C3)ccc2c1NC(=O)Cc1ccc(C(F)(F)F)c(F)c1 [Compound 66]	5
C[C@H](CO)n1ccc2c(C(=O)NCc3ccccc3C(F)(F)F)c(Cl)ccc2c1=O [Compound 46, 6-Chloro-2-((R)-2-hydroxy-1-methyl-ethyl)-1-oxo-1,2-dihydro-isoquinoline-5-carboxylic acid 2-trifluoromethyl-benzylamide]	500
Cc1ccc2c(=O)n([C@H](C)CO)ccc2c1NC(=O)Cc1cccc(C(F)(F)F)c1 [Compound 35, N-[2-((R)-2-Hydroxy-1-methyl-ethyl)-6-methyl-1-oxo-1,2-dihydro-isoquinolin-5-yl]-2-(3-trifluoromethyl-phenyl)-acetamide]	2
Cc1ccc2c(=O)n([C@H](C)CO)ccc2c1C(=O)NCc1ccc(Cl)c(F)c1 [Compound 50, 2-((R)-2-Hydroxy-1-methyl-ethyl)-6-methyl-1-oxo-1,2-dihydro-isoquinoline-5-carboxylic acid 4-chloro-3-fluoro-benzylamide]	3
C[C@H](CO)n1ccc2c(C(=O)NCc3ccc(C(F)(F)F)nc3)c(Cl)ccc2c1=O [Compound 43, 6-Chloro-2-((R)-2-hydroxy-1-methyl-ethyl)-1-oxo-1,2-dihydro-isoquinoline-5-carboxylic acid (6-trifluoromethyl-pyridin-3-ylmethyl)-amide]	310
COc1ccc2c(=O)n([C@H](C)CO)ccc2c1NC(=O)Cc1ccc(C(F)(F)F)c(F)c1 [Compound 9, 2-(3-Fluoro-4-trifluoromethyl-phenyl)-N-[2-((R)-2-hydroxy-1-methyl-ethyl)-6-methoxy-1-oxo-1,2-dihydro-isoquinolin-5-yl]-acetamide]	439
C[C@H](CO)n1ccc2c(NC(=O)Cc3ccc(Cl)c(Cl)c3)c(Cl)ccc2c1=O [Compound 12, N-[6-Chloro-2-((R)-2-hydroxy-1-methyl-ethyl)-1-oxo-1,2-dihydro-isoquinolin-5-yl]-2-(3,4-dichloro-phenyl)-acetamide]	13
C[C@H](CO)n1ccc2c(NC(=O)Cc3ccc(C(F)(F)F)c(F)c3)c(C3CC3)ccc2c1=O [Compound 17, N-[6-Cyclopropyl-2-((R)-2-hydroxy-1-methyl-ethyl)-1-oxo-1,2-dihydro-isoquinolin-5-yl]-2-(3-fluoro-4-trifluoromethyl-phenyl)-acetamide]	9
Cc1ccc2c(=O)n([C@@H](C)CO)ccc2c1NC(=O)Cc1ccc(C(F)(F)F)c(F)c1 [Compound 33, (S)-2-(3-fluoro-4-(trifluoromethyl)phenyl)-N-(2-(1-hydroxypropan-2-yl)-6-methyl-1-oxo-1,2-dihydroisoquinolin-5-yl)acetamide]	53
C[C@H](CO)n1ccc2c(C(=O)NCC3(O)CCC(F)CC3)c(Cl)ccc2c1=O (stereo partly drawn) [Compound 69]	6
O=C(Cc1cccc(C(F)(F)F)c1F)Nc1c(NCCO)ccc2c(=O)n(CCO)ccc12 [Compound 18, 2-(2-Fluoro-3-trifluoromethyl-phenyl)-N-[2-(2-hydroxy-ethyl)-6-(2-hydroxy-ethylamino)-1-oxo-1,2-dihydro-isoquinolin-5-yl]-acetamide]	1670
Cc1ccc2c(=O)n([C@H](C)CO)ccc2c1NC(=O)CC12CC3CC(CC(C3)C1)C2 [Compound 31, 2-Adamantan-1-yl-N-[2-((R)-2-hydroxy-1-methyl-ethyl)-6-methyl-1-oxo-1,2-dihydro-isoquinolin-5-yl]-acetamide]	5
Cc1ccc2c(=O)n(CCO)ccc2c1NC(=O)Cc1ccc(F)c(C(F)(F)F)c1 [Compound 27, 2-(4-Fluoro-3-trifluoromethyl-phenyl)-N-[2-(2-hydroxy-ethyl)-6-methyl-1-oxo-1,2-dihydro-isoquinolin-5-yl]-acetamide]	7
COc1ccc2c(=O)n([C@H](C)C(N)=O)ccc2c1NC(=O)Cc1ccc(C(F)(F)F)cc1 [Compound 7, (R)-2-{6-Methoxy-1-oxo-5-[2-(4-trifluoromethyl-phenyl)-acetylamino]-1H-isoquinolin-2-yl}-propionamide]	48
Cc1ccc2c(=O)n([C@H](C)CO)ccc2c1NC(=O)CC1(O)CCCCCC1 [Compound 37, 2-(1-Hydroxy-cycloheptyl)-N-[2-((R)-2-hydroxy-1-methyl-ethyl)-6-methyl-1-oxo-1,2-dihydroisoquinolin-5-yl]-acetamide]	42
CNCCn1ccc2c(NC(=O)Cc3ccc(C(F)(F)F)c(F)c3)c(C)ccc2c1=O [Compound 38, 2-(3-Fluoro-4-trifluoromethyl-phenyl)-1-[6-methyl-2-(2-methylamino-ethyl)-1-oxo-1,2-dihydroisoquinolin-5-yl]-acetamide]	43
